Source: US20190030182A1, “WATER-SOLUBLE POLYMER-LINKED BINDING MOIETY AND DRUG COMPOUNDS” (Nektar Therapeutics, priority 2011, published 2019)

Key:
[1] = system: NCI-N87 cells (Her2 positive); test: In vitro cytotoxic activity (CytoTox-Glo), NCI-N87; assay type: cell-based; settings: Homo sapiens, N87, 48 hours, medium pH 6.5
Description: (§1) The conjugates were also tested in a Her2 negative cell line, […] as an experimental control. Serial dilutions of the conjugates and control compound were prepared. Cells were lifted from the flask using 2 mL of trypsin for 5 min, neutralized with 8 mL of complete growth medium, and centrifuged at 1200 rpm for 5 min. The supernatant was aspirated and the cell pellet was washed with PBS, centrifuged, then resuspended in complete growth medium (McCoy's for SKOV3 and RPMI-1640 for N87 and SK-N-SH, supplemented with 10% heat inactivated FBS), pH 6.5. Cells were counted, diluted, and then plated in white, clear bottom 96-well plates at a density of 20,000 cells/well, then followed immediately by addition of conjugates and control compound. Cells were incubated with the test articles for 48 hours in a 37° C., 5% CO^2 incubator, and then analyzed for cytotoxic activity using Promega CytoTox-Glo chemiluminescent reagent (Cat#G9291). Signal was quantified with a Perkin Elmer TopCount plate reader, and the data was analyzed using the GraphPad Prism software. FIGS. 4, 5, and 6 are linear regression graphs for each cell line where mean RLU is plotted vs. concentration.

[2] = Body weight in the N87 xenograft study; assay type: in vivo, female SCID mice
Description: Where: L=length of the tumor in millimeters and W=width of the tumor in millimeters Tumor growth on each animal was monitored to a maximum volume of […]. Animals were weighed prior to implantation and at least twice weekly for the duration of the study.
Mean body weights ranged from 19.6±0.4 g to 20.7±0.5 g (Mean±SEM) on treatment day (FIG. 10). Greatest mean body weight loss observed was 4% in group 3 (docetaxel, 20 mg·kg) on day 4 followed by group 2 (Docetaxel, 10 mg/kg) at 2% observed on days 4 and 7 (FIG. 11). No abnormal clinical observations were noted throughout the study.

[3] = system: SK-N-SH cells (Her2 negative); test: In vitro cytotoxic activity (CytoTox-Glo), SK-N-SH; assay type: cell-based; settings: Homo sapiens, 48 hours, medium pH 6.5
Description: as §1

[4] = system: SKOV-3 cells (Her2 positive); test: In vitro cytotoxic activity (CytoTox-Glo), SKOV-3; assay type: cell-based; settings: Homo sapiens, SK-OV-3; SKOV3, 48 hours, medium pH 6.5
Description: as §1

[5] = system: N87 gastric carcinoma xenografts; test: Antitumor activity in N87 (HER2 overexpressing gastric carcinoma) xenografts; assay type: in vivo, female SCID mice; settings: single i.v.; for Animals with tumors in inhibition (number/group) / Animals with tumors in regression (number/group) / Mean Tumor Growth Inhibition / Regression: Day 35; for Highest Tumor Volume Recorded / Lowest Tumor Volume Recorded / Tumor Volume on Study Termination (Day 35) / Tumor Volume on Treatment Initiation (Day 0): Mean±SEM; for Tumor Volume on Treatment Initiation (Day 0): baseline
Source text: The objective of this study was to evaluate the antitumor activity of a single administration of anti-HER2 targeted PEG-conjugated docetaxel on N87 gastric carcinoma xenografts in female SCID mice.
Animal Husbandry: Female C.B.-17 SCID mice (5-6 weeks old), purchased from Charles River Laboratories were used for this study. Upon arrival, the mice were housed in ventilated polycarbonate cages with sterile bedding at five animals per cage and acclimated for a minimum of three days. The cages were identified by cage labels or tags. Sterilized (autoclaved or irradiated) water and commercial rodent diet were supplied ad libitum. Cages, bedding and water bottles were changed at least once a week and food was replenished as needed. The animals were maintained at a temperature
Tumor Cell Preparation: All handling and preparation of cells were conducted in a biosafety cabinet for sterility and safety. N87, gastric carcinoma cells from the NEKTAR liquid nitrogen freezers were used for this study. The cells were grown in sterile tissue culture flasks with RPMI 1640 media containing 10% Fetal Bovine Serum (FBS) until 85% confluence. To prepare for implantation, the cells in the flasks were rinsed briefly with an appropriate amount of 0.25% trypsin solution. The rinsate was removed and replaced with 2 to 3 mL of fresh 0.25% trypsin solution. The flasks were then placed in a 37′C incubator for 5 minutes. When the cells dissociated, an appropriate amount of complete growth media was added to neutralize the trypsin. The suspension was centrifuged at 1000 rpm for 10 minutes after which the supernatant was discarded. The cells were washed by resuspending the pellet in an appropriate volume of serum free media. A sample was removed for counting and the rest of the suspension was again centrifuged at 1000 rpm for 10 minutes. After centrifugation, the supernatant was discarded and the cell pellet resuspended in serum free media at an appropriate volume determined by the cell count.
Tumor Cell Implantation: All handling of animals and procedures were done in a biosafety cabinet. The animals' flanks were shaved prior to the day of implantation. The mice were anesthetized via isoflurane inhalation, when in proper anesthetic plane; the flanks were wiped with 70% isopropanol followed by implantation of the NCI N87 cells at 1×10^7 cells/site in 0.2 mL volume (in 50% Matrigel®) injected subcutaneous on the right flank of the animals. The animals were distributed accordingly based on the randomization generated by the StudyLog® software.
Treatment Groups: There were 5 groups with 8 to 10 animals each. Included were vehicle (Saline), Docetaxel at 10 mg/kg and 20 mg/kg, Affibody A-linear 2 kD PEG-docetaxel 10 mg/kg (Example 6) (Docetaxel concentration) and Affibody A-linear 20 kD PEG-docetaxel at 10 mg/kg (Example 6) (Docetaxel concentration) respectively.
Treatment Administration: The animals were distributed based on the randomization generated by the StudyLog® software. The mean tumor volumes on treatment day (Day 0) ranged from 209±8 mm^3 to 239±15 mm^3 (Mean±SEM). All test articles were diluted in sterile saline to the appropriate concentration and were administered as single dose to the appropriate treatment group via intravenous injection (i.v.). Animals were warmed in clear acrylic hotboxes to facilitate venous dilation. While in the hotboxes, the animals were closely observed for signs of overheating and distress. When the animals were amply warmed, they were removed from the hotboxes and transferred into appropriate mouse restrainers. The tails were wiped with alcohol pads and the test article in a syringe with a 27 gauge needle was injected into the lateral tail vein. Maximum treatment volume for the i.v. injections will not exceed 20 mL/kg.
Tumor Measurements and Body Weights: Tumors size was monitored at least twice weekly. Dimensions (length and the width) were measured using digital calipers. Tumor volume was computed using the formula: […]

For `CC(=O)O[C@@]12CO[C@@H]1C[C@H](O)[C@@]1(C)C(=O)[C@H](O)C3=C(C)[C@@H](OC(=O)[C@H](O)[C@@H](NC(=O)OC(C)(C)C)c4ccccc4)C[C@@](O)([C@@H](OC(=O)c4ccccc4)[C@H]21)C3(C)C` [Docetaxel, reference compound], the EC50 [1] was 0.00544 nM, the “Mean body weight loss” value ([2]; 10 mg/kg, days 4 and 7) was 2% and the “Greatest mean body weight loss” value ([2]; 20 mg·kg, day 4) was 4%. The EC50 [3] was 1.97 nM, the EC50 [4] was 1.9 nM and the “Animals with tumors in inhibition (number/group)” value ([5]; Docetaxel Dose 10 mg/kg) was “(9/10)”. The “Animals with tumors in regression (number/group)” value ([5]; Docetaxel Dose 10 mg/kg) was “(1/10)”, the “Mean Tumor Growth Inhibition” value ([5]; Docetaxel Dose 10 mg/kg) was 67.5% and the Regression ([5]; Docetaxel Dose 10 mg/kg) was 26%. The “Highest Tumor Volume Recorded” value ([5]; Docetaxel Dose 10 mg/kg) was 452 ± 80 mm^3, the “Lowest Tumor Volume Recorded” value ([5]; Docetaxel Dose 10 mg/kg) was 182 ± 25 mm^3 and the “Tumor Volume on Study Termination (Day 35)” value ([5]; Docetaxel Dose 10 mg/kg) was 452 ± 80 mm^3. For the same compound, the “Tumor Volume on Treatment Initiation (Day 0)” value ([5]; Docetaxel Dose 10 mg/kg) was 224 ± 19 mm^3, the “Animals with tumors in inhibition (number/group)” value ([5]; Docetaxel Dose 20 mg/kg) was “(9/10)” and the “Animals with tumors in regression (number/group)” value ([5]; Docetaxel Dose 20 mg/kg) was “(1/10)”. The “Mean Tumor Growth Inhibition” value ([5]; Docetaxel Dose 20 mg/kg) was 85%, the Regression ([5]; Docetaxel Dose 20 mg/kg) was 10% and the “Highest Tumor Volume Recorded” value ([5]; Docetaxel Dose 20 mg/kg) was 330 ± 33 mm^3. For the same compound, the “Lowest Tumor Volume Recorded” value ([5]; Docetaxel Dose 20 mg/kg) was 145 ± 8 mm^3, the “Tumor Volume on Study Termination (Day 35)” value ([5]; Docetaxel Dose 20 mg/kg) was 330 ± 33 mm^3 and the “Tumor Volume on Treatment Initiation (Day 0)” value ([5]; Docetaxel Dose 20 mg/kg) was 225 ± 12 mm^3.
